The text below walks through data of patent US10202367B2, “Heterocyclic compounds and methods of use thereof” (priority 2014, dated 2019).

“And” between values parts separate entries of the source, which are not always exact repeats. Equal entries are not always repeated. Bounds are passed on as bounds.

One series has as its system HCVpp GT 1a. The series can be described thus: HCVpp entry assay. The conditions noted are these: Huh7.5.1 cells. Format: cell-based, Hepatitis C virus.
Series [1] relates to HCV replicon (GT 2a) cells. Format: cell-based, Hepatitis C virus.
Series [2] is described as follows: Aqueous solubility in PBS. Format: physicochemical.
For another series, the system named is HCVcc-RLuc. The series can be described thus: HCVcc-RLuc assay, combination of compound 3 with anti-HCV drugs (CalcuSyn / MacSynergy II). Format: cell-based, Hepatitis C virus.
The test system of another series is GT 2a replicon RNA. Format: cell-based, Hepatitis C virus.
The next series relates to HCVsc, genotype 2a. In kind it is cell-based, Hepatitis C virus. To be noted: 10 μM.
Another series concerns VSVpp. In kind it is cell-based, vesicular stomatitis virus.
Series [3] in a line: Stability to nucleophilic degradation in presence of 50 μM dithiothreitol. In kind it is physicochemical. To be noted: 10 μM, 50 μM DTT, PBS and PBS/acetonitrile (1/1), after 8 hours. The protocol: (§1) Procedure: […] The mixtures were sampled every hour for eight hours or every 8 hours for 48 hours and analyzed by RP HPLC/UV/HRMS. The analytical RP HPLCUV/HRMS system utilized for the analysis was a Waters Acquity system with UV-detection and mass-detection (Waters SQD). […] Absolute areas under the curve were compared at each time point to determine relative percent compound remaining. The masses of potential adducts were searched for in the final samples to determine if any detectable adduct formed. All samples were prepared in duplicate and the average plotted. Ethacrynic acid, a known Michael acceptor, was used as a positive control. […] To determine the stability of the probe compound to nucleophilic degradation, the compound was dissolved in the two solvent systems above in the presence of 50 μM dithiothreitol (DTT) (FIGS. 2A and 2B).

A short description of series [4]: Stability in PBS or PBS/acetonitrile (1/1). In kind it is physicochemical. The conditions noted are these: 10 μM, PBS and PBS/acetonitrile (1/1), pH 7.4, room temperature, after 48 hours. The protocol:
as §1

Another series in a line: Cell permeability. Format: in vitro ADME.
A short description of a further series: in vitro. The conditions noted are these: rat, microsomes, Rat liver microsomes t ½ (min).

As for `Cc1ccccc1-c1nc(CN2CCC(C(=O)NCCCN3C[C@H](C)C[C@H](C)C3)CC2)c(C)o1` [Compound 3], the “% RLU at 10 μM, HCVpp GT 1a” value in the series with HCVpp GT 1a is recorded as below 30 % RLU. The “inhibitory effect on HCV replication, GT 2a replicon cell line” value in series [1] (10 μM) is on record as “no inhibitory effect”. The “% RLU at 10 μM, HCV subgenomic replicon GT 2a cell line” value in series [1] (48 h) came to 103 % RLU. In [2], the “Sol.” value came out at 53.9 µg/mL. The “antiviral effect in combination with ribavirin, interferon, telaprevir, daclatasvir, cyclosporin A and 2′-C-methylcytidine” value with HCVcc-RLuc (combination) is “synergistic”. For the same molecule, the “inhibitory effect on HCV replication, transient transfection with GT 2a replicon RNA” value in the series with GT 2a replicon RNA (10 μM) is listed as “no inhibitory effect”. The “% RLU at 10 μM, HCV subgenomic replicon Transient GT 2a” value in the series with GT 2a replicon RNA (Huh7.5.1 cells, 48 h) is given as 105 % RLU. The “inhibitory activity on HCVsc infection level” value with HCVsc, genotype 2a was “dramatic inhibitory activities”. Besides, the “% RLU at 10 μM, VSV pp” value with VSVpp is listed as around 50 % RLU.
In general, solubility refers to how much of the substance goes into solution per volume. Lower therefore signals little dissolved substance. For the molecule `Cc1cccc(Cl)c1-c1nc(CN2CCC(C(=O)NCCCN3C[C@H](C)C[C@H](C)C3)CC2)c(C)o1` [Compound 1, 1-((2-(2-Chloro-6-methylphenyl)-5-methyloxazol-4-yl)methyl)-N-(3-(cis-3,5-dimethylpiperidin-1-yl)propyl)piperidine-4-carboxamide], in series [3], the “degradation in presence of dithiothreitol” value is reported as “no measurable degradation”. For the same molecule, the “Sol.” value in series [2] is above 74.0 µg/mL. For the same molecule, the solubility in [2] (phosphate buffered saline (PBS), aqueous buffer, PBS, pH 7.4, room temperature (23° C.)) was > 74 µg/mL and > 147 µM. Further, in series [4], the “sample still detected in the supernatant” value is “greater than 97%”.
One may read the half-life as the time in which the quantity being followed falls by half. Read a low half-life as rapid decline. As for `Cc1ccccc1-c1nc(CC2CCC[C@@H](C(=O)CCCCN3C[C@H](C)C[C@H](C)C3)C2)c(C)o1` (stereo partly shown) [Compound 66], in the series “Cell permeability”, the “Permeability (le^−6 cm/s)” value was determined as 864.8 le^−6 cm/s. Moreover, the “Sol.” value in series [2] stood at 57.8 µg/mL. Also, the half-life in the series “in vitro” amounted to 3.9 min.
Take `Cc1oc(-c2c(C)c(C)c(C)c(C)c2C)nc1CN1CCC(C(=O)NCCCN2C[C@H](C)C[C@H](C)C2)CC1` [Compound 56]: the “Permeability (le^−6 cm/s)” value in the series “Cell permeability” is given as 455.2 le^−6 cm/s.
For the molecule `Cc1ccccc1-c1nc(CN2CCC[C@@H](C(=O)NCCCN3C[C@H](C)C[C@H](C)C3)C2)c(C)o1` [Compound 67], the “Permeability (le^−6 cm/s)” value in “Cell permeability” came out at 864.8 le^−6 cm/s. In series [2], the “Sol.” value stood at 57.8 µg/mL. In “in vitro”, this molecule gave a half-life of 3.9 min.
In the same order, the values of `C[C@@H]1C[C@H](C)CN(CCCNC(=O)C2CCN(Cc3oc(-c4cc(C(F)(F)F)cc(C(F)(F)F)c4)nc3C(F)(F)F)CC2)C1` [Compound 68] are 1061 le^−6 cm/s, 2.5 µg/mL and 16.4 min.
For the molecule `Cc1ccccc1-c1nc(CN2CCC(C(=O)NCCN3CCCCC3)CC2)c(C)o1` [Compound 11], the “Permeability (le^−6 cm/s)” value in “Cell permeability” was 987.3 le^−6 cm/s. In [2], the “Sol.” value was found to be 47 µg/mL.
On to `CC1CCCN(CCCNC(=O)C2CCN(Cc3oc(-c4cc(C(F)(F)F)cc(C(F)(F)F)c4)nc3C(F)(F)F)CC2)C1` (stereo not shown) [Compound 69], for which the “Permeability (le^−6 cm/s)” value in the series “Cell permeability” was above 1397 le^−6 cm/s. In addition, the half-life in “in vitro” was 5.7 min.
In the case of `CCN(CC)CCCCNC(=O)C1CCN(Cc2nc(-c3cc(OC)cc(OC)c3)oc2C)CC1` [Compound 8], in the series “Cell permeability”, the “Permeability (le^−6 cm/s)” value is 10.4 le^−6 cm/s. Further, the “Sol.” value in series [2] is above 72.0 µg/mL.
With `COC(=O)N[C@H](C(=O)N1CCC[C@H]1c1nc(-c2ccc(-c3ccc(-c4c[nH]c([C@@H]5CCCN5C(=O)[C@@H](NC(=O)OC)C(C)C)n4)cc3)cc2)c[nH]1)C(C)C` [Daclatasvir], in the series on HCVcc-RLuc, the “CalcuSyn CI value (combination index)” value is recorded as 0.510 and the “CalcuSyn synergy volume (level of synergy)” value is on record as “+++ (key: +/−: nearly additive (0.9 < CI < 1.1); ++: moderate synergy (0.7 < CI < 0.85); +++: synergy (0.3 < CI < 0.7))”.
On to `NC(=O)c1ncn([C@@H]2O[C@H](CO)[C@@H](O)[C@H]2O)n1` [Ribavirin], for which, in the series with HCVcc-RLuc, the “CalcuSyn CI value (combination index)” value is on record as 0.770, the “CalcuSyn synergy volume (level of synergy)” value is reported as “++ (key: +/−: nearly additive (0.9 < CI < 1.1); ++: moderate synergy (0.7 < CI < 0.85); +++: synergy (0.3 < CI < 0.7))” and the “MacSynergy synergy volume (level of synergy)” value is on record as “+++ (key: ++: moderate synergy (5 < log volume < 9); +++: strong synergy (log volume > 9))”.
